Reference: paper PMC7281206, “Cysteine Cathepsins Inhibition Affects Their Expression and Human Renal Cancer Cell Phenotype” (Cancers, 2020)
*: point of attachment. CH2F = FC*

Tests used:
Type in all cases: cell-based, human
769-P cells = experiment: Cell viability/proliferation (MTT), 769-P; conditions: 2.5–250 μM; for Cell viability: 72 h; for Effect on cell proliferation: within 48 h
Method: Figure 3 The effect of the peptide inhibitors on human 769-P and A498 renal cancer cell proliferation and proteolytic activity. (a) 769-P and (b) A498 cells were treated with increasing doses of Ac-PLVE-FMK (red bars) and Ac-VLPE-FMK (blue bars) (2.5–250 μM). Cell proliferation was measured after 24, 48, and 72 h via MTT (3-(4,5-dimethylthiazol-2-yl)-2,5-diphenyltetrazolium bromide) assay. Data represent the mean (±S.D.) of at least three independent experiments, each performed in triplicate. (c) Fluorescence microscopy evaluation and quantification of the cell proteolytic activity in 769-P and (d) A498 cells towards the fluorogenic substrate Ac-PLVQ-AMC in the absence or presence of Ac-PLVE-FMK and Ac-VLPE-FMK. The cells were seeded in a 96-well plate and after exposure to the peptides for 30 min prior incubation with the fluorescent substrate Ac-PLVQ-AMC for 10 min. Data are expressed as mean (±S.D.), and significance was calculated through one-way ANOVA followed by Dunnet’s test. * = p < 0.05, ** = p < 0.01, *** = p < 0.001.
The human renal cancer cell line lines […], A498 were obtained from Dr. Vadim Pokrovsky (purchased from American Type Culture Collection). The cells were cultured in RPMI 1640, supplemented with 10% fetal bovine serum and 1% mixture of antibiotics penicillin-streptomycin (all from Gibco, Waltham, MA, USA) at 5% CO2 and 37 °C in a humidified chamber. Cells were grown to confluence and harvested by trypsinization, using a 0.25 mg/mL trypsin/EDTA solution (ThermoFisher, Carlsbad, CA, USA) and resuspended in the fresh culture medium. Viable cells were enumerated on the Countess II FL Automated Cell Counter (ThermoFisher, Waltham, MA, USA), following Trypan Blue staining. The cell lines were tested for mycoplasma contamination regularly, using the Molecular Probes™ MycoFluor Mycoplasma Detection Kit (ThermoFisher, Waltham, MA, USA).
The cell number was evaluated by counting viable cells using the MTT (3-(4,5-dimethylthiazol-2-yl)-2,5-diphenyltetrazolium bromide) colorimetric assay. A total of 2 × 10^4 cells/well were seeded on independent 96-well plates for each time point (0, 24, 48, and 72 h), with five replicates and treated with two inhibitors (2.5–250 μM). Then, 10 µL of the MTT reagent was added to each well, and cells were incubated for another 5 h. Next, the absorbance value was measured using a CLARIOstar® Plus plate reader (BMG Labtech, Ortenberg, Germany) at 490 nm. Triplicate wells were assayed, and S.D.s were determined.

[1] = test system: 769-P cells (proteolytic activity); experiment: Cell proteolytic activity towards Ac-PLVQ-AMC, 769-P; conditions: 30 min peptide, then 10 min Ac-PLVQ-AMC; fluorescence microscopy and fluorimetric analysis
Method: (§1) To evaluate the inhibitory properties of the peptides directly on the human renal cancer cells, we firstly assessed the impact of Ac-PLVE-FMK and Ac-VLPE-FMK on the cell viability of 769-P and A498 cells to determine the working concentrations for further experiments. […] Further experiments were performed using a concentration of 20 μM. To understand if the peptides could affect the activity of caspase proteases, we tested their effect on cell viability in combination with the chemotherapeutic paclitaxel (PXT) in both the cell lines. […] Next, we evaluated the effect of the peptides on renal cancer cell proteolytic activity against the fluorogenic probe Ac-PLVQ-AMC. In this case, 769-p and A498 cells were treated for 30 min with Ac-PLVE-FMK or Ac-VLPE-FMK and were then exposed for 10 min to the substrate Ac-PLVQ-AMC prior fluorescence microscopy analysis (Figure 3c,d).
(§2) Figure 3 The effect of the peptide inhibitors on human 769-P and A498 renal cancer cell proliferation and proteolytic activity. […] Cell proliferation was measured after 24, 48, and 72 h via MTT (3-(4,5-dimethylthiazol-2-yl)-2,5-diphenyltetrazolium bromide) assay. […] (c) Fluorescence microscopy evaluation and quantification of the cell proteolytic activity in 769-P and (d) A498 cells towards the fluorogenic substrate Ac-PLVQ-AMC in the absence or presence of Ac-PLVE-FMK and Ac-VLPE-FMK. […]

[2] = test system: A498 cells (proteolytic activity); experiment: Cell proteolytic activity towards Ac-PLVQ-AMC, A498; conditions: 30 min peptide, then 10 min Ac-PLVQ-AMC; fluorescence microscopy and fluorimetric analysis
Method: as §1, §2

LAMP-1 in 769-P cells = experiment: LAMP-1 expression (confocal microscopy), 769-P; conditions: 20 μM
Method: Figure 7 Effect of the peptides on LAMP-1 protein expression: (a) Western blotting analysis of LAMP-1 after treatment with PLVE and VLPE (20 μM) for 24, 48, and 72 h in 769-P cells. (b) Confocal microscopy evaluation of LAMP-1 expression after 48 and 72 h of treatment with PLVE and VLPE (20 μM) in 769-P cells. (c) Western blotting analysis of LAMP-1 after treatment with PLVE and VLPE (20 μM) for 24, 48, and 72 h in A498 cells. (d) Confocal microscopy evaluation of LAMP-1 expression after 48 and 72 h of treatment with PLVE and VLPE (20 μM) in A498 cells. Data are represented as mean ± SD of at least three replicates. Significance was calculated through one-way ANOVA followed by Dunnet’s test. * = p < 0.05, ** = p < 0.01, *** = p < 0.001. The cells were treated for 48 and 72 h, then were fixed in 4% PFA/PBS for 15 min and permeabilized in 0.25% Triton®X-100 for 10 min. After blocking the non-specific sites in 2% BSA/PBS-T, the immunofluorescence was performed overnight with primary antibody anti-LAMP-1 (1:100, Abcam, Eugene, OR, USA) incubation, followed by incubation with the appropriate fluorophore-labeled secondary antibody Donkey anti-Rabbit IgG (H+L) ReadyProbes™, Alexa Fluor 488 (1:500; ThermoFisher, USA). The cells were then counterstained with nuclear dye DAPI and visualized under a fluorescent and/or confocal microscope (Olympus BX51, Shinjuku, Tokyo, Japan, and AxioObserver Z1, Zeiss, Oberkochen, Germany) using oil-immersion lenses.

Row | Substance | Cell viability (769-P cells) | Effect on cell proliferation (769-P cells) | Inhibition of probe degradation (cell proteolytic activity) [1] | Inhibition of probe degradation (cell proteolytic activity) [2] | LAMP-1 expression (confocal) (LAMP-1 in 769-P cells; 48 h) | LAMP-1 expression (confocal) (LAMP-1 in 769-P cells; 72 h)
1 | Ac-VLPE-CH2F [Ac-VLPE-FMK] | cell viability increased, reaching values not significantly different from the control cells | cytostatic properties on both cell lines only within 48 h of treatment | significantly inhibited the probe degradation | significantly inhibited the probe degradation | increased LAMP-1 expression | the content of LAMP-1 decreased towards control levels
2 | Ac-PLVE-CH2F [Ac-PLVE-FMK] | cell viability increased, reaching values not significantly different from the control cells | cytostatic properties on both cell lines only within 48 h of treatment | significantly inhibited the probe degradation | significantly inhibited the probe degradation | increased LAMP-1 expression | the content of LAMP-1 decreased towards control levels
